Results reported in patent US20240409746A1, “AZO IRON COMPLEX DYE, INK COMPOSITION CONTAINING SAME, AND METHOD FOR PRODUCING AZO IRON COMPLEX DYE” (ORIENT CHEMICAL INDUSTRIES CO., LTD., priority 2021, published 2024).

Tests used:
Format in all cases: physicochemical
[1] = Solubility evaluation (maximum concentration with no insoluble substances on the membrane filter); conditions: for Maximum concentration (%) Ethanol / Maximum concentration (%) Methyl ethyl ketone: tested at 5%, 10%, 15% and 20%, ultrasonically dispersed 10 minutes, 1 μm PTFE membrane filter
Text: (§1) Then the azo iron complex dyes solutions were filtered through a membrane filter (pore size 1 μm, PTFE) under reduced pressure, and the maximum concentrations of the azo iron complex dyes were defined as the concentrations at which it was confirmed that there were no insoluble substances on the membrane filter. Then the hue of the methyl ethyl ketone solution with the azo iron complex dyes concentrations of 5% was visually observed.

[2] = Visual observation of hue of 5% solution of the azo iron complex dye; conditions: for Hue of 5% methyl ethyl ketone solution with azo iron complex dye: 5% in methyl ethyl ketone, visually observed
Protocol: A solution of the azo iron complex dye A-1 in methyl ethyl ketone was prepared at a concentration of 10 mg/1000 ml (10 ppm). The absorbance of this solution was measured using an ultraviolet-visible spectrophotometer (available from Shimadzu Corporation; trade name UV-1700).
as §1

[3] = Electrical conductivity measurement; conditions: 6% solution in methyl ethyl ketone
Text: The azo iron complex dye of the present invention can be suitably used in the ink composition for a CIJ printer. Herein, the electrical conductivity K of the azo iron complex dye is preferably 300-2200 μS/cm, and more preferably 600-2000 μS/cm. As long as the electrical conductivity is within this range, the charge of the ink composition for a CIJ printer containing the azo iron complex dye can be stably and freely controlled, so that the ejection stability of the ink composition can be improved. Note that the electrical conductivity K is measured by inserting and immersing an electrode of an electrical conductivity meter in a 6 mass % methyl ethyl ketone solution of the azo iron complex dye.
A 6% solution of the azo iron complex dye A-1 in methyl ethyl ketone was prepared and measured using an electrical conductivity meter (available from Eutech Instruments Pte, Ltd.; trade name CyberScan CON100). As a result, the electrical conductivity K was 1530 μS/cm. Furthermore, a 6% solution of the azo iron complex dye A-1 in methyl ethyl ketone was prepared and measured using a conductivity meter (available from Knick Co., Ltd.; trade name Conducell 4USF-PG120). As a result, the electrical conductivity K was […].

[4] = Dissolution stability of dye solution on standing

Structure (SMILES)	Maximum concentration (%) Ethanol [1]	Solubility in both methyl ethyl ketone and ethanol (in words) [1]	Maximum concentration (%) Methyl ethyl ketone [1]	Hue of 5% methyl ethyl ketone solution with azo iron complex dye [2]	Color of solution adjusted to a concentration of 5% [2]	Electrical conductivity K ([3]; CyberScan CON100)	Dissolution stability, left overnight ([4]; 5% solution, left overnight (8 hours))	Dissolution stability in ethanol ([4]; ethanol solution allowed to stand for 10 minutes)	Electrical conductivity K immediately after dissolution ([3]; immediately after dissolution)
O=[N+]([O-])c1ccc2c(c1)[O][Fe]1([O]c3cc([N+](=O)[O-])ccc3N=Nc3c(ccc4ccccc34)[O]1)[O]c1ccc3ccccc3c1N=N2 (centres unmarked) [B-1]	5%	good solubility	10%	reddish brown hue	dark brown color	1450 μS/cm			
CCCCN(CCCC)c1ccc2c(c1)[O][Fe]1([O]c3cc(N(CCCC)CCCC)ccc3N=Nc3cc(C)c(N=Nc4ccc(C#N)cc4)cc3[O]1)[O]c1cc(N=Nc3ccc(C#N)cc3)c(C)cc1N=N2 (centres unmarked) [B-2]	<5%	low solubility	5%	black color within a practical range	sufficient black color		precipitation was observed	precipitate was confirmed	165 μS/cm
